What all share (type): in vivo
In experiment [1] the test system is Mythimna separata. The experiment in a line: Activity determination of killing Mythimna separata (Airbrush spray, corn leaf segments). To be noted: foliar, dose 1.25 mg/L, 3rd instar larvae, 3rd day after administration, read-out: mortality against Mythimna separata. As for the experimental part:
(§1) The compounds to be tested were dissolved in a mixed solvent of acetone/methanol (1:1) and then diluted to desired concentrations with water containing 0.1% (wt) Tween 80.
(§2) With Mythimna separata and Plutella xylostella as targets, the activity was determined by Airbrush spray method.
Determination method: Corn leaves were cut into leaf segments with the length of 2 cm, the pressure of Airbrush spray treatment is 10 psi (about 0.7 kg/cm^2), and the compounds to be tested were sprayed onto the front and back surfaces of each leaf segment at a liquid amount of 0.5 mL. After drying in the shade, 10 3rd instar larvae were inoculated to each treatment, and each treatment was repeated for 3 times. After the treatment, the larvae were placed in an observation room for culture at 25° C. with relative humidity of 60-70%. On the 3rd day after administration, the number of surviving larvae was investigated, and the mortality was calculated.

Experiment [2] deals with Plutella xylostella. Nature of the experiment: Activity determination of killing Plutella xylostella (Airbrush spray, cabbage leaf discs). To be noted: foliar, 3rd day after administration; for mortality at 0.3125 µg/mL: 0.3125 mg/L, read-out: Mortality (%, on 3rd day after administration) 0.3125 mg/L; for mortality at 0.625 µg/mL: 0.625 mg/L, read-out: Mortality (%, on 3rd day after administration) 0.625 mg/L. How it is done:
as §1, §2
Determination method: Cabbage leaves were punched into leaf discs with the diameter of 2 cm by a puncher, the pressure of Airbrush spray treatment is 10 psi (about 0.7 kg/cm^2), and the compounds to be tested were sprayed onto the front and back surfaces of each leaf disc at a liquid amount of 0.5 mL. After drying in the shade, 10 3rd instar larvae were inoculated to each treatment, and each treatment was repeated for 3 times. After the treatment, the larvae were placed in an observation room for culture at 25° C. with relative humidity of 60-70%. On 3rd day after administration, the number of surviving larvae was investigated, and the mortality was calculated.
Some compounds of the present disclosure and control compounds were selected to carry out parallel comparative experiments of the insecticidal activity against Plutella xylostella (on 3rd day after administration), and the determination method was the same as above.

Experiment [3] deals with Tetranychus cinnabarinus. Nature of the experiment: Greenhouse acaricidal activity on adult acarids of Tetranychus cinnabarinus (spraying of Phaseolus vulgaris seedlings). To be noted: dose 1.25 mg/L, after 72 h, read-out: mortality against adult acarids of Tetranychus cinnabarinus. As for the experimental part:
According to the solubility of the compounds to be tested, the compounds to be tested were dissolved in acetone or dimethyl sulfoxide and prepared into 50 mL of solutions to be tested at desired concentrations with a 0.1% Tween 80 solution, where the content of the acetone or dimethyl sulfoxide in the solutions was not higher than 10%.
Two true leaves of Phaseolus vulgaris seedlings were taken, and 30-40 adult acarids of Tetranychus cinnabarinus were inoculated. After the cardinal number was investigated, the whole plants were subjected to spraying treatment with a hand-held sprayer, each treatment was repeated for 3 times, and the plants were placed in a standard observation room after the treatment. The number of surviving acarids was investigated after 72 h, and the mortality was calculated.

The subject of experiment [4] is Ctenocephalides felis. Nature of the experiment: Insecticidal test on Ctenocephalides felis (compound film in culture dish). The settings on record: 1 μg/cm^2; adult Ctenocephalides felis; after 72 h; 25° C.; read-out: insect mortality (Ctenocephalides felis). How it is done:
4 mg of compounds to be tested were dissolved in 40 mL of acetone to obtain acetone solutions with a concentration of 100 mg/L. Bottom surfaces and side surfaces of culture dishes with an inner diameter of 5.3 cm were coated with 400 μL of the drug solutions, and when the acetone was volatilized, films of the compounds of the present disclosure were prepared on inner walls of the culture dishes. The inner walls of the culture dishes used were 40 cm^2, and a dose of the treatment drugs was 1 μg/cm^2. 10 adult Ctenocephalides felis (males and females were mixed) were placed in the culture dishes, and the culture dishes were covered and then stored in a constant-temperature room at 25° C. The number of dead insects was checked after 72 h, and the insect mortality was calculated. The test was repeated for 3 times. Test results: The insect mortality of compounds 1, 2, 3, 4, 5, 11, 12, 18, 32, 33, 34, 46, 60, 74, 88, 99, 101, 102, 104, 105, 108, 109, 110, 111, 113 and 114 is 70% or above.

In experiment [5] the test system is Dermacentor variabilis. Nature of the experiment: Insecticidal test on Dermacentor variabilis (compound film in culture dish). The settings on record: 1 μg/cm^2, 1st nymphs, after 24 h, 25° C., read-out: insect mortality (Dermacentor variabilis). How it is done:
4 mg of compounds to be tested were dissolved in 40 mL of acetone to obtain acetone solutions with a concentration of 100 mg/L. Bottom surfaces and side surfaces of 2 culture dishes with an inner diameter of 5.3 cm were coated with 400 μL of the drug solutions, and when the acetone was volatilized, films of the compounds of the present disclosure were prepared on inner walls of the culture dishes. The inner walls of the culture dishes used were 40 cm^2, and a dose of the treatment drugs was 1 μg/cm^2. 10 1st nymphs of Dermacentor variabilis (males and females were mixed) were placed in the culture dishes. The 2 culture dishes were combined, sealed with tape at a junction portion to prevent escape of the nymphs, and then stored in a constant-temperature room at 25° C. The number of dead insects was checked after 24 h, and the insect mortality was calculated. The test was repeated for 3 times. Test results: The insect mortality of compounds 1, 2, 3, 4, 5, 11, 12, 18, 32, 33, 34, 46, 60, 74, 88, 99, 101, 102, 104, 105, 108, 109, 110, 111, 113 and 114 is 70% or above.

[6] abbreviates: dose 1.25 mg/L, 3rd instar larvae, read-out: mortality against Plutella xylostella.
[7] abbreviates: parallel comparative experiment.
The mark [8] stands for this setting: 1.25 mg/L, parallel comparative experiment, read-out: Mortality (%, on 3rd day after administration) 1.25 mg/L.

Like-named read-outs stand apart in the source and are kept apart here. Where only a bound is given, the exact number is not on record here.

Take `N#CCN(C(=O)c1cc(-c2cnn(-c3c(Br)cc(C(F)(C(F)(F)F)C(F)(F)F)cc3C(F)(F)F)c2)cnc1Cl)C1CC1` [Compound 46]: the mortality at 1.25 µg/mL in experiment [1], in experiment [2] (setting [6]) and in experiment [3] was at least 90% throughout. Also, the mortality at 1 µg/cm2 in experiment [4] and in experiment [5] was at least 70% each time.
As to `N#CCN(C(=O)c1cc(-c2cnn(-c3c(Cl)cc(C(F)(C(F)(F)F)C(F)(F)F)cc3C(F)(F)F)c2)cnc1Cl)C1CC1` [Compound 60], the mortality at 1.25 µg/mL in experiment [1], in experiment [2] (setting [6]) and in experiment [3] was at least 90% throughout. The mortality at 1 µg/cm2 in experiment [4] and in experiment [5] was at least 70% throughout.
In the case of `N#CCN(C(=O)c1cc(-c2cnn(-c3c(Br)cc(C(F)(C(F)(F)F)C(F)(F)F)cc3OC(F)(F)F)c2)cnc1Cl)C1CC1` [Compound 74], the mortality at 1.25 µg/mL in experiment [1], in experiment [2] (setting [6]) and in experiment [3] was at least 90% each time. The mortality at 1 µg/cm2 in experiment [4] and in experiment [5] was at least 70% each time.
In the case of `N#CCN(C(=O)c1cc(-c2cnn(-c3c(Cl)cc(C(F)(C(F)(F)F)C(F)(F)F)cc3OC(F)(F)F)c2)cnc1Cl)C1CC1` [Compound 88], the mortality at 1.25 µg/mL in experiment [1], in experiment [2] (setting [6]) and in experiment [3] was at least 90% in each case. Moreover, the mortality at 1 µg/cm2 in experiment [4] and in experiment [5] was at least 70% in each case.
For `CC(=O)N(C(=O)c1cc(-c2cnn(-c3c(Cl)cc(C(F)(C(F)(F)F)C(F)(F)F)cc3Cl)c2)cnc1Cl)C1CC1` [Compound 99], the mortality at 1.25 µg/mL was at least 90% in experiment [1], 100% in experiment [2] (setting [8]), at least 90% in experiment [2] (setting [6]) and at least 90% in experiment [3]. Moreover, the mortality at 0.3125 µg/mL in experiment [2] (setting [7]) worked out at 100%. Also, the mortality at 0.625 µg/mL in experiment [2] (setting [7]) was 100%. Also, the mortality at 1 µg/cm2 in experiment [4] and in experiment [5] was at least 70% each time.
Turning to `CCCC(=O)N(C(=O)c1cc(-c2cnn(-c3c(Cl)cc(C(F)(C(F)(F)F)C(F)(F)F)cc3Cl)c2)cnc1Cl)C1CC1` [Compound 101], the mortality at 1.25 µg/mL in experiment [1], in experiment [2] (setting [6]) and in experiment [3] was at least 90% each time. The mortality at 1 µg/cm2 in experiment [4] and in experiment [5] was at least 70% throughout.
As to `CC(C)C(=O)N(C(=O)c1cc(-c2cnn(-c3c(Cl)cc(C(F)(C(F)(F)F)C(F)(F)F)cc3Cl)c2)cnc1Cl)C1CC1` [Compound 102], the mortality at 1.25 µg/mL in experiment [1], in experiment [2] (setting [6]) and in experiment [3] was at least 90% each time. The mortality at 1 µg/cm2 in experiment [4] and in experiment [5] was at least 70% throughout.
As for `O=C(c1cc(-c2cnn(-c3c(Cl)cc(C(F)(C(F)(F)F)C(F)(F)F)cc3Cl)c2)cnc1Cl)N(C(=O)C1CC1)C1CC1` [Compound 104], the mortality at 1.25 µg/mL in experiment [1] is at least 90%; in experiment [2] (setting [8]), 100%; in experiment [2] (setting [6]), at least 90%; in experiment [3], at least 90%. Also, the mortality at 0.3125 µg/mL in experiment [2] (setting [7]) was determined as 100%. Moreover, in experiment [2] (setting [7]), the mortality at 0.625 µg/mL is 100%. In addition, the mortality at 1 µg/cm2 in experiment [4] and in experiment [5] was at least 70% throughout.
As to `COCC(=O)N(C(=O)c1cc(-c2cnn(-c3c(Cl)cc(C(F)(C(F)(F)F)C(F)(F)F)cc3Cl)c2)cnc1Cl)C1CC1` [Compound 105], the mortality at 1.25 µg/mL in experiment [1] was at least 90%; in experiment [2] (setting [8]), 100%; in experiment [2] (setting [6]), at least 90%; in experiment [3], at least 90%. For the same molecule, the mortality at 0.3125 µg/mL in experiment [2] (setting [7]) was found to be 100%. The mortality at 0.625 µg/mL in experiment [2] (setting [7]) came out at 100%. Besides, the mortality at 1 µg/cm2 in experiment [4] and in experiment [5] was at least 70% throughout.
Turning to `CC(=O)N(C(=O)c1cc(-c2cnn(-c3c(Cl)cc(C(F)(C(F)(F)F)C(F)(F)F)cc3Cl)c2)cnc1Cl)C1(C#N)CC1` [Compound 108], the mortality at 1.25 µg/mL in experiment [1] is at least 90%; in experiment [2] (setting [8]), 100%; in experiment [2] (setting [6]), at least 90%; in experiment [3], at least 90%. Moreover, the mortality at 0.3125 µg/mL in experiment [2] (setting [7]) is 100%. The mortality at 0.625 µg/mL in experiment [2] (setting [7]) was determined as 100%. The mortality at 1 µg/cm2 in experiment [4] and in experiment [5] was at least 70% throughout.
With `CCC(=O)N(C(=O)c1cc(-c2cnn(-c3c(Cl)cc(C(F)(C(F)(F)F)C(F)(F)F)cc3Cl)c2)cnc1Cl)C1(C#N)CC1` [Compound 109], the mortality at 1.25 µg/mL in experiment [1], in experiment [2] (setting [6]) and in experiment [3] was at least 90% in each case. Also, the mortality at 1 µg/cm2 in experiment [4] and in experiment [5] was at least 70% throughout.
On to `CCCC(=O)N(C(=O)c1cc(-c2cnn(-c3c(Cl)cc(C(F)(C(F)(F)F)C(F)(F)F)cc3Cl)c2)cnc1Cl)C1(C#N)CC1` [Compound 110], for which the mortality at 1.25 µg/mL in experiment [1], in experiment [2] (setting [6]) and in experiment [3] was at least 90% in each case. Besides, the mortality at 1 µg/cm2 in experiment [4] and in experiment [5] was at least 70% throughout.
For `CC(C)C(=O)N(C(=O)c1cc(-c2cnn(-c3c(Cl)cc(C(F)(C(F)(F)F)C(F)(F)F)cc3Cl)c2)cnc1Cl)C1(C#N)CC1` [Compound 111], the mortality at 1.25 µg/mL in experiment [1], in experiment [2] (setting [6]) and in experiment [3] was at least 90% throughout. The mortality at 1 µg/cm2 in experiment [4] and in experiment [5] was at least 70% each time.
Take `N#CC1(N(C(=O)c2cc(-c3cnn(-c4c(Cl)cc(C(F)(C(F)(F)F)C(F)(F)F)cc4Cl)c3)cnc2Cl)C(=O)C2CC2)CC1` [Compound 113]: the mortality at 1.25 µg/mL in experiment [1] is at least 90%; in experiment [2] (setting [8]) it was 100%; in experiment [2] (setting [6]) it was at least 90%; in experiment [3], at least 90%. The mortality at 0.3125 µg/mL in experiment [2] (setting [7]) amounted to 100%. For the same molecule, the mortality at 0.625 µg/mL in experiment [2] (setting [7]) turned out to be 100%. Also, the mortality at 1 µg/cm2 in experiment [4] and in experiment [5] was at least 70% throughout.

For the origin of these results see patent publication US20250084058A1, “PHENYLPYRAZOLE COMPOUND AND APPLICATION THEREOF” (priority 2022, published 2025).
